# Legend:
# Assay type in all cases: cell-based
# MOLT-4 cells = experiment: MOLT-4 cell viability, CTG assay; conditions: Homo sapiens, MOLT-4, 48 h
# Summary of the method: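 Viability read as total ATP luminescence (CTG) after 48 h compound treatment, 11 points at 5-fold spacing in triplicate, cells in RPMI 1640/10% FBS. IC50 is the concentration halving signal relative to control, four-parameter fit, averaged over at least 2 experiments.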
# [1] = tested on: EBC-1 lung cancer cell line; experiment: EBC-1 cell proliferation, CellTiter-Glo assay; conditions: Homo sapiens, 120 h; Ebc-1 cell viability, CTG assay, 5 days of treatment; read-out: CTG 5 day Ebc1 GI50
# Summary of the method: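 CellTiter-Glo read-out after 5-day compound treatment, normalised to untreated cells, with GI50 derived by four-parameter logistic regression. Ten concentrations spanning 0.508 nM–10 μM were added to 1000 EBC-1 cells per well the day after seeding. Assays required at least one cell doubling versus Day 0.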
# HiBiT-tagged BCL-xL = target: T1, HiBiT-tagged BCL-xL (Homo sapiens, UniProt Q07817); experiment: NCI-H1650 BCL-xL protein levels, Nano-Glo HiBiT Lytic Detection; conditions: NCI-H1650 expressing HiBiT-tagged BCL-xL, overnight incubation, read-out: Bcl-xl HIBIT NCIH1650 DC50
# T1 construct: expressed in transfected cells; host or cells: NCI-H1650 (ATCC No. CRL-5883), engineered HiBiT cell line
# Summary of the method: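 HiBiT luminescence after cell lysis with LgBiT/furimazine reagent reported BCL-xL levels, expressed relative to untreated wells and fitted with a four-parameter logistic equation. Engineered NCI-H1650 cells were exposed overnight at 37° C to compound at final 0.508 nM-10 μM (10 points, triplicate plates).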
# Bcl-xL = target: T2, Bcl-xL (Homo sapiens, UniProt Q07817); experiment: HCT116 Bcl-xL degradation, capillary-based immunoassay (WES); conditions: HCT116, 24 h, 9-point serial dilution
# T2 construct: Measured levels of Bcl-xL protein of HCT116 cells treated with the tested compounds; host or cells: HCT116
# Summary of the method: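 Bcl-xL protein level by capillary WES immunoassay in HCT116 lysates, as % of untreated after cofilin normalization. Compound exposure was 24 h at 10 and 100 nM and/or a 9-point series, in quadruplicate. Four-parameter fitting gave the DC50.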
# T1 sequence (Q07817 whole entry): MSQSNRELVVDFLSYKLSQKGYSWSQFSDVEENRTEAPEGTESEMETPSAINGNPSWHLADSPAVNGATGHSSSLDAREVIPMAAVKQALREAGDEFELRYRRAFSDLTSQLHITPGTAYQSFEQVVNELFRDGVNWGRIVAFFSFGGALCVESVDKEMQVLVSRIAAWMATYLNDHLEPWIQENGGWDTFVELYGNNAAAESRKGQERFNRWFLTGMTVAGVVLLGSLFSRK
# T2 sequence (Q07817 whole entry): as above
SMILES,IC50 (MOLT-4 cells) [nM],GI50 [1] [nM],DC50 (HiBiT-tagged BCL-xL) [nM],DC50 (Bcl-xL) [nM]
"Cc1ncsc1-c1ccc(CNC(=O)[C@@H]2C[C@@H](O)CN2C(=O)[C@@H](NC(=O)C2(F)CC2)C(C)(C)C)c(OCCCCCCCCCCCCCN(C)CCOC23CC4(C)CC(C)(CC(Cn5ncc(-c6ccc(N7CCCc8c7nnc(Nc7nc9ccccc9s7)c8C)nc6C(=O)O)c5C)(C4)C2)C3)c1 [Example 85, 6-[3-(1,3-benzothiazol-2-ylamino)-4-methyl-6,7-dihydro-5H-pyrido[2,3-c]pyridazin-8-yl]-3-[1-[[3-[2-[13-[2-[[[(2S,4R)-1-[(2S)-2-[(1-fluorocyclopropanecarbonyl)amino]-3,3-dimethyl-butanoyl]-4-hydroxy-pyrrolidine-2-carbonyl]amino]methyl]-5-(4-methylthiazol-5-yl)phenoxy]tridecyl-methyl-amino]ethoxy]-5,7-dimethyl-1-adamantyl]methyl]-5-methyl-pyrazol-4-yl]pyridine-2-carboxylic acid]",4.17,64,5,0.291
"Cc1ncsc1-c1ccc([C@H](C)NC(=O)[C@@H]2C[C@@H](O)CN2C(=O)[C@@H](NC(=O)CCOCCOCCOCCOCCN(C)CCOC23CC4(C)CC(C)(CC(Cn5ncc(-c6ccc(N7CCCc8c7nnc(Nc7nc9ccccc9s7)c8C)nc6C(=O)O)c5C)(C4)C2)C3)C(C)(C)C)cc1 [Example 89, 6-[3-(1,3-benzothiazol-2-ylamino)-4-methyl-6,7-dihydro-5H-pyrido[2,3-c]pyridazin-8-yl]-3-[1-[[3-[2-[2-[2-[2-[2-[3-[[(1S)-1-[(2S,4R)-4-hydroxy-2-[[(1S)-1-[4-(4-methylthiazol-5-yl)phenyl]ethyl]carbamoyl]pyrrolidine-1-carbonyl]-2,2-dimethyl-propyl]amino]-3-oxo-propoxy]ethoxy]ethoxy]ethoxy]ethyl-methyl-amino]ethoxy]-5,7-dimethyl-1-adamantyl]methyl]-5-methyl-pyrazol-4-yl]pyridine-2-carboxylic acid]",57.6,435,13,> 316
"Cc1ncsc1-c1ccc(CNC(=O)[C@@H]2C[C@@H](O)CN2C(=O)[C@@H](NC(=O)C2(F)CC2)C(C)(C)SCCCCCCCCCCN(C)CCOC23CC4(C)CC(C)(CC(Cn5ncc(-c6ccc(N7CCCc8c7nnc(Nc7nc9ccccc9s7)c8C)nc6C(=O)O)c5C)(C4)C2)C3)cc1 [Example 94, 6-[3-(1,3-benzothiazol-2-ylamino)-4-methyl-6,7-dihydro-5H-pyrido[2,3-c]pyridazin-8-yl]-3-[1-[[3-[2-[10-[(2R)-2-[(1-fluorocyclopropanecarbonyl)amino]-3-[(2S,4R)-4-hydroxy-2-[[4-(4-methylthiazol-5-yl)phenyl]methylcarbamoyl]pyrrolidin-1-yl]-1,1-dimethyl-3-oxo-propyl]sulfanyldecyl-methyl-amino]ethoxy]-5,7-dimethyl-1-adamantyl]methyl]-5-methyl-pyrazol-4-yl]pyridine-2-carboxylic acid]",14.4,112,> 1670,1.06

# The remaining molecules from weak to strong by IC50 (MOLT-4 cells), led by results:
IC50 (MOLT-4 cells) [nM],GI50 [1] [nM],DC50 (HiBiT-tagged BCL-xL) [nM],DC50 (Bcl-xL) [nM],SMILES
18.1,171,> 1670,> 316,"Cc1ncsc1-c1ccc([C@H](C)NC(=O)[C@@H]2C[C@@H](O)CN2C(=O)[C@@H](NC(=O)C2CCN(C(=O)CCCCCCCCCN(C)CCOC34CC5(C)CC(C)(CC(Cn6ncc(-c7ccc(N8CCCc9c8nnc(Nc8nc%10ccccc%10s8)c9C)nc7C(=O)O)c6C)(C5)C3)C4)CC2)C(C)(C)C)cc1 [Example 84, 6-[3-(1,3-benzothiazol-2-ylamino)-4-methyl-6,7-dihydro-5H-pyrido[2,3-c]pyridazin-8-yl]-3-[1-[[3-[2-[[10-[4-[[(1S)-1-[(2S,4R)-4-hydroxy-2-[[(1S)-1-[4-(4-methylthiazol-5-yl)phenyl]ethyl]carbamoyl]pyrrolidine-1-carbonyl]-2,2-dimethyl-propyl]carbamoyl]-1-piperidyl]-10-oxo-decyl]-methyl-amino]ethoxy]-5,7-dimethyl-1-adamantyl]methyl]-5-methyl-pyrazol-4-yl]pyridine-2-carboxylic acid]"
15.1,203,> 1670,> 316,"Cc1ncsc1-c1ccc([C@H](C)NC(=O)[C@@H]2C[C@@H](O)CN2C(=O)[C@@H](NC(=O)C2CCN(C(=O)CCCCCCCN(C)CCOC34CC5(C)CC(C)(CC(Cn6ncc(-c7ccc(N8CCCc9c8nnc(Nc8nc%10ccccc%10s8)c9C)nc7C(=O)O)c6C)(C5)C3)C4)CC2)C(C)(C)C)cc1 [Example 81, 6-[3-(1,3-benzothiazol-2-ylamino)-4-methyl-6,7-dihydro-5H-pyrido[2,3-c]pyridazin-8-yl]-3-[1-[[3-[2-[[8-[4-[[(1S)-1-[(2S,4R)-4-hydroxy-2-[[(1S)-1-[4-(4-methylthiazol-5-yl)phenyl]ethyl]carbamoyl]pyrrolidine-1-carbonyl]-2,2-dimethyl-propyl]carbamoyl]-1-piperidyl]-8-oxo-octyl]-methyl-amino]ethoxy]-5,7-dimethyl-1-adamantyl]methyl]-5-methyl-pyrazol-4-yl]pyridine-2-carboxylic acid]"
10,157,> 1670,> 316,"Cc1ncsc1-c1ccc([C@H](C)NC(=O)[C@@H]2C[C@@H](O)CN2C(=O)[C@@H](NC(=O)C2CCN(C(=O)CCCCCCCCCCN(C)CCOC34CC5(C)CC(C)(CC(Cn6ncc(-c7ccc(N8CCCc9c8nnc(Nc8nc%10ccccc%10s8)c9C)nc7C(=O)O)c6C)(C5)C3)C4)CC2)C(C)(C)C)cc1 [Example 82, 6-[3-(1,3-benzothiazol-2-ylamino)-4-methyl-6,7-dihydro-5H-pyrido[2,3-c]pyridazin-8-yl]-3-[1-[[3-[2-[[11-[4-[[(1S)-1-[(2S,4R)-4-hydroxy-2-[[(1S)-1-[4-(4-methylthiazol-5-yl)phenyl]ethyl]carbamoyl]pyrrolidine-1-carbonyl]-2,2-dimethyl-propyl]carbamoyl]-1-piperidyl]-11-oxo-undecyl]-methyl-amino]ethoxy]-5,7-dimethyl-1-adamantyl]methyl]-5-methyl-pyrazol-4-yl]pyridine-2-carboxylic acid]"
6.11,92,> 1670,3.57,"Cc1ncsc1-c1ccc(CNC(=O)[C@@H]2C[C@@H](O)CN2C(=O)[C@@H](NC(=O)C2(F)CC2)C(C)(C)SCCCCCCCCCCCCCCN(C)CCOC23CC4(C)CC(C)(CC(Cn5ncc(-c6ccc(N7CCCc8c7nnc(Nc7nc9ccccc9s7)c8C)nc6C(=O)O)c5C)(C4)C2)C3)cc1 [Example 80, 6-[3-(1,3-benzothiazol-2-ylamino)-4-methyl-6,7-dihydro-5H-pyrido[2,3-c]pyridazin-8-yl]-3-[1-[[3-[2-[14-[(2R)-2-[(1-fluorocyclopropanecarbonyl)amino]-3-[(2S,4R)-4-hydroxy-2-[[4-(4-methylthiazol-5-yl)phenyl]methylcarbamoyl]pyrrolidin-1-yl]-1,1-dimethyl-3-oxo-propyl]sulfanyltetradecyl-methyl-amino]ethoxy]-5,7-dimethyl-1-adamantyl]methyl]-5-methyl-pyrazol-4-yl]pyridine-2-carboxylic acid]"
